Counter-ions that a name gives are not always drawn. Like-named read-outs stand apart in the source and are kept apart here.
Columns and labels:
Assay type in all cases: cell-based
HIV-1 containing K65R = test: microbe, parasite or virus in culture; details: for EC50 / EC90: Human immunodeficiency virus 1, Lymphocyte; for FI50 (ratio of EC50 against mutant virus:EC50 against wild-type xxLAI) / FI90 (ratio of EC90 against mutant virus:EC90 against wild-type xxLAI): K65R
[1] = tested on: HIV-1 containing A62V/V75I/F77L/F116Y/Q151M; test: microbe, parasite or virus in culture; details: for FI50 (ratio of EC50 against mutant virus:EC50 against wild-type xxLAI) / FI90 (ratio of EC90 against mutant virus:EC90 against wild-type xxLAI): A62V/V75I/F77L/F116Y/Q151M; for EC50 / EC90: Human immunodeficiency virus 1, Lymphocyte
wild-type HIV-1xxLAI = test: Antiviral potency in primary human lymphocytes, wild type; details: Human immunodeficiency virus 1, Lymphocyte
[2] = tested on: HIV-1 containing 4xAZT (D67N/K70R/T215Y/K219Q); test: microbe, parasite or virus in culture; details: for FI50 (ratio of EC50 against mutant virus:EC50 against wild-type xxLAI) / FI90 (ratio of EC90 against mutant virus:EC90 against wild-type xxLAI): 4xAZT (D67N/K70R/T215Y/K219Q); for EC50 / EC90: Human immunodeficiency virus 1, Lymphocyte
HIV-1 containing L74V = test: microbe, parasite or virus in culture; details: for EC50 / EC90: Human immunodeficiency virus 1, Lymphocyte; for FI50 (ratio of EC50 against mutant virus:EC50 against wild-type xxLAI) / FI90 (ratio of EC90 against mutant virus:EC90 against wild-type xxLAI): L74V
HIV-1 containing M184V = test: microbe, parasite or virus in culture; details: for EC50 / EC90: Human immunodeficiency virus 1, Lymphocyte; for FI50 (ratio of EC50 against mutant virus:EC50 against wild-type xxLAI) / FI90 (ratio of EC90 against mutant virus:EC90 against wild-type xxLAI): M184V
[3] = tested on: various NRTI-resistant HIV-1; test: Antiviral potency against various NRTI-resistant HIV-1 in primary human lymphocytes (summary over strains); details: K65R, M184V, L74V, A62V/V75I/F77L/F116Y/Q151M, 4xAZT
Text: FI50 is the ratio of EC50 against mutant virus:EC50 against wild-type xxLAI. FI90 is the ratio of EC90 against mutant virus:EC90 against wild-type xxLAI.

[4] = xxLAI, primary human lymphocytes, read-out: EC50
[5] = xxLAI, primary human lymphocytes, read-out: EC90

Structure (SMILES)	EC50 (HIV-1 containing K65R) [µM]	EC90 (HIV-1 containing K65R) [µM]	FI50 (ratio of EC50 against mutant virus:EC50 against wild-type xxLAI) (HIV-1 containing K65R)	FI90 (ratio of EC90 against mutant virus:EC90 against wild-type xxLAI) (HIV-1 containing K65R)	FI50 (ratio of EC50 against mutant virus:EC50 against wild-type xxLAI) [1]	FI90 (ratio of EC90 against mutant virus:EC90 against wild-type xxLAI) [1]	EC50 [1] [µM]	EC90 [1] [µM]	EC50 (wild-type HIV-1xxLAI; [4]) [µM]	EC90 (wild-type HIV-1xxLAI; [5]) [µM]	FI50 (ratio of EC50 against mutant virus:EC50 against wild-type xxLAI) [2]	FI90 (ratio of EC90 against mutant virus:EC90 against wild-type xxLAI) [2]	EC50 [2] [µM]	EC90 [2] [µM]	FI50 (ratio of EC50 against mutant virus:EC50 against wild-type xxLAI) (HIV-1 containing L74V)	FI90 (ratio of EC90 against mutant virus:EC90 against wild-type xxLAI) (HIV-1 containing L74V)	EC50 (HIV-1 containing M184V) [µM]	EC90 (HIV-1 containing M184V) [µM]	FI50 (ratio of EC50 against mutant virus:EC50 against wild-type xxLAI) (HIV-1 containing M184V)	FI90 (ratio of EC90 against mutant virus:EC90 against wild-type xxLAI) (HIV-1 containing M184V)	also measured
Nc1nc(=O)n([C@@H]2CS[C@H](CO)O2)cc1F (relative stereo) [(−)FTC, cis-2-hydroxymethyl-5-(5-fluorocytosin-1-yl)-1,3-oxathiolane]	0.5 ± 0.4	2.4 ± 1.4	5.5	2.9	4.2	2.5	0.4 ± 0.3	2.1 ± 1.6	0.09 ± 0.02	0.8 ± 0.4	2	1.4	0.2 ± 0.1	1.2 ± 0.1	2	1.6	10.1 ± 7.3	41.3 ± 29.3	117	50	EC50 (HIV-1 containing L74V): 0.2 ± 0.2 µM; EC90 (HIV-1 containing L74V): 1.3 ± 1 µM
Nc1ccn([C@@H]2CS[C@H](CO)O2)c(=O)n1 [Compound 3TC, (−)-cis-2-hydroxymethyl-5-(cytosin-1-yl)-1,3-oxathiolane]	2.5 ± 3	6 ± 5.3	3.3	1.9	0.6	0.9	0.5 ± 0.7	2.7 ± 1.7	0.8 ± 0.4	3.1 ± 1.2	0.9	1.1	0.7 ± 0.8	3.4 ± 1.1	0.7	0.9	> 10	> 10	13.3	3.2	EC50 (HIV-1 containing L74V): 0.6 ± 0.8 µM; EC90 (HIV-1 containing L74V): 2.9 ± 2.9 µM
Cc1cn([C@H]2C=C[C@@H](CO)O2)c(=O)[nH]c1=O [Compound D4T, 2′,3′-dideoxy-2′,3′-didehydrothymidine]	1.5 ± 0.6	7.9 ± 0.3	1.5	1.2	6.9	11	6.8 ± 5.7	70.3 ± 51.4	–	–	–	8.3	27.8 ± 37.1	53.2 ± 66.3	0.9	1.5	0.6 ± 0.8	2.6 ± 2.5	0.6	0.4	EC50 (wild-type HIV-1xxLAI): 1 ± 0.5 µM; EC90 (wild-type HIV-1xxLAI): 6.4 ± 0.4 µM; EC50 (HIV-1 containing L74V): 0.9 ± 0.8 µM; EC90 (HIV-1 containing L74V): 9.8 ± 2.4 µM
O=C1Nc2ccc(Cl)cc2[C@@](C#CC2CC2)(C(F)(F)F)O1 [EFV, efavirenz]	0.007	0.02 ± 0.01	0.3	0.1	7.7	2	0.2 ± 0.3	0.44 ± 0.6	0.02 ± 0.03	0.2 ± 0.3	3.1	1	0.07 ± 0.04	–	2.6	1.1	0.01 ± 0.006	0.08 ± 0.08	0.5	0.4	EC50 (HIV-1 containing L74V): 0.06 ± 0.07 µM; antiviral potency for wild-type HIV-1xxLAI versus NRTI-resistant HIV-1 [3]: similarly potent across all NRTI resistant strains
CC(C)OC(=O)OCOP(=O)(CO[C@H](C)Cn1cnc2c(N)ncnc21)OCOC(=O)OC(C)C [TDF, Tenofovir disoproxil fumarate]	0.4 ± 0.1	1.6 ± 0.5	2.2	1.7	3.9	3.9	0.7 ± 0.8	3.6 ± 2.2	0.2 ± 0.2	0.9 ± 0.8	1.3	1.3	0.07 ± 0.04	1.2 ± 1.1	1.4	1.2	0.09 ± 0.03	0.5 ± 0.3	0.6	0.6	EC90 (HIV-1 containing L74V): 0.2 ± 0.1 µM
OC[C@@H]1CC[C@H](n2cnc3c(O)ncnc32)O1 [ddI, 2′,3′-dideoxyinosine]	21.2 ± 18.3	86.7 ± 0.8	1.8	1.6	3.5	1.5	40.5 ± 52.1	83.5 ± 28.6	11.5 ± 6.6	55.4 ± 23	3.1	1.4	35.5 ± 31	77.1 ± 32.4	1.1	1.1	11.5 ± 9.1	44.9 ± 26.2	1	0.8	EC50 (HIV-1 containing L74V): 13.2 ± 8.5 µM; EC90 (HIV-1 containing L74V): 80.9 ± 16.6 µM
